{
  "source": "patent US20110015080A1",
  "about": "“Solution-based methods for RNA expression profiling” (MASSACHUSETTS INSTITUTE OF TECHNOLOGY, priority 2005, published 2011)",
  "tested_on": "HL60 (human promyelocytic leukemia) cells",
  "test": "LMA-FlexMAP bead-based gene expression signature analysis of total RNA from HL60 cells treated with tretinoin or DMSO (ninety transcripts); as to FlexMap GAPDH M LUA#94: test concentration or dose not given here; as to FlexMap NM 000147 LUA#29: test concentration or dose not given here; as to FlexMap NM 001948 LUA#84: test concentration or dose not given here",
  "key": {"[1]": {"settings": "Experiment 2, Tretinoin, replicate columns"}},
  "note": "Values joined by “and” are separate entries in the source; they are usually repeats but may differ in a detail not shown here. Equal entries are not always repeated.",
  "data": [
    {"smiles": "CC1=C(/C=C/C(C)=C/C=C/C(C)=C/C(=O)O)C(C)(C)CCC1", "note": "[tretinoin, all-trans-retinoic acid]", "values": [
      {"measurement": "NM_005952 LUA#66 FlexMAP signal", "setting": "Experiment 1, tretinoin-treated HL60, transcript NM_005952, replicate columns", "value": "172 and 212 and 149 and 198.5 and 72.5 and 189 and 203 and 95.5 and 188.5 and 182"},
      {"measurement": "NM_005980 LUA#73 FlexMAP signal", "setting": "Experiment 1, tretinoin-treated HL60, transcript NM_005980, replicate columns", "value": "145 and 173 and 163 (2×) and 57 and 142 and 74 and 149.5 and 151"},
      {"measurement": "NM_006019 LUA#35 FlexMAP signal", "setting": "Experiment 1, tretinoin-treated HL60, transcript NM_006019, replicate columns", "value": "746 and 867 and 569 and 818 and 186 and 828 and 762 and 287 and 767 and 734.5"},
      {"measurement": "NM_006138 LUA#56 FlexMAP signal", "setting": "Experiment 1, tretinoin-treated HL60, transcript NM_006138, replicate columns", "value": "114 and 130 and 93 and 124 and 51.5 and 113.5 and 115.5 and 66 and 122 and 114.5"},
      {"measurement": "NM_006432 LUA#27 FlexMAP signal", "setting": "Experiment 1, tretinoin-treated HL60, transcript NM_006432, replicate columns", "value": "1294.5 and 1495 and 1081.5 and 1409.5 and 397 and 1446 and 1405 and 625 and 1345 and 1203"},
      {"measurement": "NM_006452 LUA#71 FlexMAP signal", "setting": "Experiment 1, tretinoin-treated HL60, transcript NM_006452, replicate columns", "value": "78.5 and 76 and 67.5 and 79.5 and 41 and 75 and 68 and 53.5 and 82 and 74"},
      {"measurement": "NM_006985 LUA#58 FlexMAP signal", "setting": "Experiment 1, tretinoin-treated HL60, transcript NM_006985, replicate columns", "value": "52 and 54 and 47 and 59 and 37 and 55 and 56 and 40 and 57 and 51"},
      {"measurement": "NM_007282 LUA#16 FlexMAP signal", "setting": "Experiment 1, tretinoin-treated HL60, transcript NM_007282, replicate columns", "value": "60.5 and 60 and 39 and 64.5 (2×) and 42.5 and 64 and 62 and 56 and 61"},
      {"measurement": "NM_014333 LUA#26 FlexMAP signal", "setting": "Experiment 1, tretinoin-treated HL60, transcript NM_014333, replicate columns", "value": "472 and 584 and 366.5 and 531 and 134 and 492 and 530 and 197.5 and 497 and 459.5"},
      {"measurement": "NM_014366 LUA#61 FlexMAP signal", "setting": "Experiment 1, tretinoin-treated HL60, transcript NM_014366, replicate columns", "value": "213 and 263 and 163 and 235 (2×) and 66 and 231 (2×) and 97 and 209.5"},
      {"measurement": "NM_014573 LUA#70 FlexMAP signal", "setting": "Experiment 1, tretinoin-treated HL60, transcript NM_014573, replicate columns", "value": "135 and 155 (2×) and 99 and 153.5 and 61 and 138 and 79 and 138.5 and 144.5"},
      {"measurement": "NM_015201 LUA#57 FlexMAP signal", "setting": "Experiment 1, tretinoin-treated HL60, transcript NM_015201, replicate columns", "value": "181 and 226.5 and 139 and 222 and 64 and 208 and 203 and 87 and 194.5 and 183"},
      {"measurement": "NM_018115 LUA#63 FlexMAP signal", "setting": "Experiment 1, tretinoin-treated HL60, transcript NM_018115, replicate columns", "value": "506.5 and 644 and 552.5 and 735.5 and 143 and 690 and 601 and 227.5 and 582 and 418"},
      {"measurement": "NM_018164 LUA#69 FlexMAP signal", "setting": "Experiment 1, tretinoin-treated HL60, transcript NM_018164, replicate columns", "value": "140.5 and 177 and 131 and 165 and 57 and 152.5 and 155 and 75 and 143 and 142"},
      {"measurement": "NM_018256 LUA#83 FlexMAP signal", "setting": "Experiment 1, tretinoin-treated HL60, transcript NM_018256, replicate columns", "value": "1557 and 747 and 897 and 726 and 388 and 903 and 998 and 589 and 1256.5 and 1208"},
      {"measurement": "NM_018890 LUA#33 FlexMAP signal", "setting": "Experiment 1, tretinoin-treated HL60, transcript NM_018890, replicate columns", "value": "705 and 824 and 537.5 and 758 and 187.5 and 788 and 743.5 and 293.5 and 719 and 712"},
      {"measurement": "NM_019058 LUA#75 FlexMAP signal", "setting": "Experiment 1, tretinoin-treated HL60, transcript NM_019058, replicate columns", "value": "143.5 and 158 (2×) and 143 and 164 and 59 and 152 and 79.5 and 148.5 and 129"},
      {"measurement": "NM_020117 LUA#78 FlexMAP signal", "setting": "Experiment 1, tretinoin-treated HL60, transcript NM_020117, replicate columns", "value": "527 and 607 and 408 and 584.5 and 145 and 554 and 564 and 230 and 529.5 and 519"},
      {"measurement": "NM_021103 LUA#41 FlexMAP signal", "setting": "Experiment 1, tretinoin-treated HL60, transcript NM_021103, replicate columns", "value": "2412 and 2719 and 2257.5 and 2689 and 925 and 2668.5 and 2611 and 1370 and 2590 and 2454"},
      {"measurement": "NM_021203 LUA#80 FlexMAP signal", "setting": "Experiment 1, tretinoin-treated HL60, transcript NM_021203, replicate columns", "value": "547 and 654 and 442.5 and 642.5 and 151 and 578.5 and 611 and 228.5 and 563 and 546"},
      {"measurement": "NM_021974 LUA#64 FlexMAP signal", "setting": "Experiment 1, tretinoin-treated HL60, transcript NM_021974, replicate columns", "value": "1003 and 1158 and 872 and 1105 and 293.5 and 1102.5 and 1052.5 and 477.5 and 1068 and 955"},
      {"measurement": "NM_024045 LUA#65 FlexMAP signal", "setting": "Experiment 1, tretinoin-treated HL60, transcript NM_024045, replicate columns", "value": "124 and 146 and 100 and 145 and 52 and 141 and 142 and 69 and 133 and 119"},
      {"measurement": "TFRC LUA#92 FlexMAP signal", "setting": "Experiment 1, tretinoin-treated HL60, transcript TFRC, replicate columns", "value": "250 and 305 and 191.5 and 285 and 81.5 and 280.5 and 289 and 109 and 272 and 251.5"},
      {"measurement": "FlexMap ACTB LUA#91", "setting": "[1]", "value": "2807 and 2986 and 107 and 2939 and 1020 and 2820 and 2870 and 2791 and 2727 and 2873.5"},
      {"measurement": "FlexMap GAPDH_3 LUA#95", "setting": "[1]", "value": "3075 and 2896 and 139.5 and 2850 and 1137 and 3025 and 3066 and 2936 and 2973 and 3162.5"},
      {"measurement": "FlexMap GAPDH_5 LUA#93", "setting": "[1]", "value": "1888 and 1977.5 and 72 and 1965.5 and 509 and 1847 and 2001 and 1834.5 and 1691 and 1994"},
      {"measurement": "FlexMap GAPDH_M LUA#94", "setting": "[1]", "value": "1814 and 1595.5 and 73 and 1871 and 514 and 1911 and 2010.5 and 1693.5 and 1762.5 and 1932.5"},
      {"measurement": "FlexMap NM_000147 LUA#29", "setting": "[1]", "value": "1102 and 1135 and 36 and 1106 and 236 and 1132 and 1122.5 and 1051 and 1086 and 1171"},
      {"measurement": "FlexMap NM_000211 LUA#39", "setting": "[1]", "value": "1639.5 and 1219 and 89 and 1828 and 470 and 1717 and 1734.5 and 1593.5 and 1570 and 1763"},
      {"measurement": "FlexMap NM_000250 LUA#87", "setting": "[1]", "value": "236 and 228 and 39 and 249 and 70 and 246 and 243 and 232 and 239.5 and 253"},
      {"measurement": "FlexMap NM_000414 LUA#22", "setting": "[1]", "value": "564.5 and 544 and 34 and 547 and 115.5 and 596 and 561.5 and 550.5 and 543 and 598.5"},
      {"measurement": "FlexMap NM_000433 LUA#28", "setting": "[1]", "value": "786.5 and 574 and 34 and 810 and 158 and 860 and 842 and 753 and 724 and 823"},
      {"measurement": "FlexMap NM_000584 LUA#30", "setting": "[1]", "value": "2339.5 and 2517.5 and 72 and 2315 and 665 and 2389 and 2341.5 and 2247 and 2269 and 2450"},
      {"measurement": "FlexMap NM_000884 LUA#81", "setting": "[1]", "value": "963.5 and 841 and 61 and 951 and 259.5 and 1004 and 988 and 925 and 916 and 1010"},
      {"measurement": "FlexMap NM_001034 LUA#67", "setting": "[1]", "value": "260 and 246 and 32.5 and 280 and 65 and 281 and 253 and 271 and 252 and 276"},
      {"measurement": "FlexMap NM_001101 LUA#34", "setting": "[1]", "value": "3017 and 2733 and 211 and 3046 and 1578 and 3029 and 3195 and 2934 and 2997 and 3139.5"},
      {"measurement": "FlexMap NM_001469 LUA#79", "setting": "[1]", "value": "1315 and 1107 and 73 and 1230 and 333.5 and 1437 and 1331.5 and 1308 and 1281.5 and 1360"},
      {"measurement": "FlexMap NM_001498 LUA#18", "setting": "[1]", "value": "494.5 and 511 and 32 and 521 and 110.5 and 507.5 and 513 and 441.5 and 467 and 531.5"},
      {"measurement": "FlexMap NM_001684 LUA#23", "setting": "[1]", "value": "71 and 75 and 30 and 98 and 38.5 and 66 and 79 and 68 and 77.5 and 83"},
      {"measurement": "FlexMap NM_001948 LUA#84", "setting": "[1]", "value": "72 and 70 and 33 and 79.5 and 40 and 68 (2×) and 70.5 and 62 and 81"},
      {"measurement": "FlexMap NM_002166 LUA#25", "setting": "[1]", "value": "227 and 254.5 and 30 and 237 and 60 and 230 and 240 and 221 and 242"},
      {"measurement": "FlexMap NM_002467 LUA#90", "setting": "[1]", "value": "741 and 823 (2×) and 762.5 and 205 and 792 and 798 and 776 and 759"},
      {"measurement": "FlexMap NM_002468 LUA#40", "setting": "[1]", "value": "531.5 and 584 and 35 and 511 and 135 and 556.5 and 549 and 498 and 494 and 589.5"},
      {"measurement": "FlexMap NM_002539 LUA#74", "setting": "[1]", "value": "416 and 397 and 33 and 437 and 89 and 423 and 409 and 392 and 368 and 441"},
      {"measurement": "FlexMap NM_002624 LUA#36", "setting": "[1]", "value": "1647.5 and 1643 and 71 and 1714 and 670 and 1664 and 1757 and 1580.5 and 1616 and 1772.5"},
      {"measurement": "FlexMap NM_002664 LUA#38", "setting": "[1]", "value": "2701.5 and 2723 and 91 and 2815 and 1002 and 2840.5 and 2805 and 2642 and 2652 and 2875"},
      {"measurement": "FlexMap NM_002970 LUA#42", "setting": "[1]", "value": "1716.5 and 1563 and 42 and 1624 and 435.5 and 1759.5 and 1743 and 1655.5 and 1575 and 1823"},
      {"measurement": "FlexMap NM_002982 LUA#45", "setting": "[1]", "value": "3697 and 3859 and 294 and 3328 and 2094 and 3522 and 3632 and 3562 and 3485 and 3768"}
    ]}
  ]
}
